Measured values published in patent publication US11759480B2, “Compositions and methods for CAR T cell therapy” (ENDOCYTE, INC., priority 2017, dated 2023).
Like-named read-outs stand apart in the source and are kept apart here.

Experiments:
MDA-MB-231 tumors = format: in vivo, NSG mice
Description: MDA-MB-231 tumors were generated by subcutaneous implantation of cultured cells at 2×10^6 in NSG mice.
FITC-CAR-T cells were prepared as described previously. After culturing in-vitro for 12-20 days, they were frozen and stored at −80° C. in a freezing reagent containing 50% heat-inactivated AB+ human serum, 40% T cell culture media, and 10% DMSO. Frozen CAR-T cells were quickly thawed at 37° C., washed twice with PBS, and used for animal injection.
In general, EC17/CAR-T therapy initiated when mouse tumors reached ˜200-250 mm^3 and weekly EC17 doses at 500 nmol/kg started 2 days after the CAR-T administration. All EC17 doses were given towards the end of day (˜3-4 PM) to allow cytokine release syndrome (CRS) to develop overnight. Sodium fluorescein rescue at various doses (0.06-60 μmol/kg) was administrated after the first dose of EC17, when the animals experienced a severe CRS of grade 3-4 on a 0-5 grading scale (FIG. 31). Plasma samples at various time points (3-27 hours) post sodium fluorescein rescue were collected for multiplex cytokine analysis.
Approximately 48 hours after CAR-T cell infusion, mice were separated into 3 groups. The first group (#1) was not dosed with EC17 and served as the CAR-T cell control, the second (#2) and the third (#3) groups were intravenously injected with a single dose of EC17 (500 nmol/kg). […] Group #2 then received a single intravenous sodium fluorescein (60 μmol/kg) while group #3 was left un-rescued. […] Three satellite animals from each group were euthanized to collect blood and organs for cytokine analysis and organ toxicity evaluation. Whole blood was obtained via cardiac puncture and collected into EDTA containing tubes. Twenty-seven hours after sodium fluorescein rescue, mice rescued with 60 μmol/kg sodium fluorescein in group #2 were recovering and sCRS scale decreased to grade 2, while mice without rescue in group #3 had worse sCRS (grade 3-4). At this time, 6 satellite mice from each group were euthanized for blood collection and organ evaluation. The remaining mice were dosed with a single dose of 500 nmol/kg EC17 every week if desired, and the EC17 dosing dates were labeled in FIG. 36 as dashed vertical lines occurring after the notation “EC17”. Tumor volume and body weight changes were monitored 2-3 times per week.
To evaluate whether a lower level of sodium fluorescein can also rescue mice under sCRS, the same rescue study was performed except that sodium fluorescein was dosed at 0.06, 0.6, and 6 μmol/kg.

THP-1-FRβ tumors = experiment: EC17/CAR-T therapy in folate receptor-β positive acute myeloid leukemia model (Example 44); format: in vivo
From the text: THP-1-FRβ tumors were generated by intravenous implantation of cultured cells at 5×10^6 per animal in 9 NSG mice.
Starting 11 days post tumor implantation, ˜8.3 million of GFP+4M5.3 CAR-T cells were intravenously infused into each mouse. Mice were divided into 3 groups (n=3): (1) CAR-T cell alone, (2) CAR-T cells with weekly EC17 doses at 500 nmol/kg, and (3) CAR-T cells with weekly EC17 doses at 500 nmol/kg plus sodium fluorescein rescue when needed. The first EC17 dose was given two days after CAR-T cell administration. All EC17 doses were given towards the end of day (˜3-4 PM) to allow cytokine release syndrome (CRS) to develop overnight. […] No additional sodium fluorescein rescue was given for additional EC17 dosing in Group 3. Mice were weighed and monitored for sign of health and disease development. […] Upon euthanasia, all mice were subject to gross examination for the presence of tumor masses. All visible tumor masses were excised, counted and weighed. Blood, tumor metastases (mets) and normal adjacent tissues were collected for same-day flow cytometry analysis.
Plasma was removed from predetermined volumes of whole EDTA treated blood with a 10-minute 4° C. spin at 3000×g and the resulting cell pellets were incubated with a 10-fold volume of room temperature 1×RBC lysis solution (prepared from 10× stock; Biolegend, catalog #420301) for 5 minutes, centrifuged at 400×g for 5 min. The cell pellets were washed in a 10-fold volume of ice-cold phosphate-buffered saline (PBS, pH=7.4 and filtered with a 40 μm nylon filter then pelleted again. The leukocyte cell pellets were then resuspended in a flow cytometry staining solution (1% bovine serum albumin, […] human IgG (Equitech Bio, cat #SLH56-0001), 0.9% sodium azide in PBS, pH=7.4) supplemented with both anti-mouse FcγIII/II receptor (CD16/CD32) block (clone 2.4G2; BD Bioscience, catalog #553142 at 1:100 (v/v) dilution) and anti-human Fc Block (BD Biosciences, catalog #564220 at 1:50 (v/v) dilution). Surface marker staining was performed with the addition of the following fluorochrome conjugated monoclonal antibodies added to each sample for 20 minutes on ice in the dark: anti-human CD45-APCeF780 (clone HI30, eBioscience #47-0459-42 at 1:20 (v/v) dilution), anti-human CD3-BV650 (clone SK7, BD Bioscience, catalog #563999 at 1:20 (v/v) dilution), anti-human CD137-BV650 (clone 4B4-1, BD Bioscience #564092 at 1:20 (v/v) dilution), anti-human CD8α-PECy7 (clone RPA-T8, BD Bioscience, catalog #557746 at 1:20 (v/v) dilution), anti-human CD4-Percpe710 (clone SK3, eBioscience catalog #46-0047-42 at 1:20 (v/v) dilution), anti-human CD25-PE (clone M-A251, BD Bioscience, catalog #555432 at 1:10 (v/v) dilution), anti-human CD33-PE (clone WM53, BD Bioscience, catalog #555450 at 1:5 (v/v) dilution), anti-human CD123-AF647 (clone 9F5, BD Bioscience, catalog #563599 at 1:20 (v/v) dilution). Biotinylated anti-human folate receptor-β (clone m909) was kindly provided by the Low lab at Purdue University (Arthritis Res Ther. 2011; 13(2):R59) and detected using streptavidin-eFluor660 (eBioscience, catalog #50-4317 at 1:1000 (v/v) dilution). Folic acid binding was interpreted as a measure of functional folate receptor and was determined by incubation with an Alexa Fluor conjugated folic acid which was synthesized in house. After leukocyte staining, cells were washed with PBS and resuspended in cold PBS containing 3 μM propidium idodide. Flow cytometry data was collected on the Gallios flow cytometer (Beckman Coulter, Brea, Calif.), where a minimum of 15,000 CountBright™ bead events were collected in an attempt to collect enough leukocyte events for an accurate count of infused CAR T cells in each mouse blood sample. Determination of the concentration of CAR T cells in each blood sample was calculated according to Invitrogen's instructions. Briefly, CAR T cells were identified as human CD45+ GFP+ events and easily distinguished and counted using the Kaluza™ flow cytometry software version 1.5. […]

Nc1nc2ncc(CNc3ccc(C(=O)NC(CCC(=O)NCCNC(=S)Nc4ccc(-c5c6ccc(=O)cc-6oc6cc(O)ccc56)c(C(=O)O)c4)C(=O)O)cc3)nc2c(=O)[nH]1 (stereo not drawn) [EC17, FITC-Folate]
tumor growth (MDA-MB-231 tumors; 500 nmol/kg SIW, ~10.4 million FITC-CAR-T): started to shrink and disappeared eventually | GFP+ leukemic cells in blood (THP-1-FRβ tumors; 500 nmol/kg SIW for 4 weeks, day 34 post CAR-T infusion): nearly undetectable in the blood | CRS grade (THP-1-FRβ tumors; morning after first EC17 dose 500 nmol/kg, ~8.3 million CAR-T): ~3 grade | persistence of anti-leukemia activity post CAR T cell infusion (THP-1-FRβ tumors; mouse, in vivo): 47 days | EC17-treated mice with minimum tumor load at collection (THP-1-FRβ tumors; weekly 500 nmol/kg, +/- one-time sodium fluorescein rescue): five out of the 6 | CAR T cell phenotype (THP-1-FRβ tumors; weekly injections of EC17): central memory/effector memory phenotype

O=C([O-])c1ccccc1-c1c2ccc(=O)cc-2oc2cc([O-])ccc12.[Na+].[Na+] [sodium fluorescein]
recovery (MDA-MB-231 tumors; 0.06 μmol/kg): slowest recovery | recovery (MDA-MB-231 tumors; 6 μmol/kg): recovered the fastest | time to near normal range of IFN-γ (MDA-MB-231 tumors; 60 μmol/kg): 27 h | time to normal range of IL-2, TNF-α, IL-3, GM-CSF, IL-6 (MDA-MB-231 tumors; 60 μmol/kg): 7 h | human cytokine levels in blood (MDA-MB-231 tumors; 60 μmol/kg, 7 hours and 27 hours post rescue): much lower than those in un-rescued mice | sCRS severity (MDA-MB-231 tumors; 0.06, 0.6, 6 μmol/kg, ~8.3 million CAR-T): dose-dependent reduction of sCRS severity | sCRS grade (MDA-MB-231 tumors; 7 hours after 60 μmol/kg rescue, 0-5 grading scale): low grade 3 | sCRS grade (MDA-MB-231 tumors; 27 hours after 60 μmol/kg rescue): 2 grade | lung edema (MDA-MB-231 tumors; 27 hours after rescue, 60 μmol/kg): lung edema was improved | median effective dose (human cytokine levels in mouse blood) (MDA-MB-231 tumors; IL-2, TNF-α, IFN-γ etc.): about 0.6 μmol/kg | earliest cytokine response post rescue (MDA-MB-231 tumors; key cytokines): 3 h | effect on anti-tumor activity of EC17/CAR-T therapy (MDA-MB-231 tumors; one dose 6 μmol/kg): didn't affect the anti-tumor activity | effect on CAR-T anti-tumor activity (MDA-MB-231 tumors; one dose 60 μmol/kg): did not interfere with CAR-T anti-tumor activity in vivo | recovery from CRS (THP-1-FRβ tumors; 6 μmol/kg, Group 3): completely recovered | CAR T cell functionality after rescue (THP-1-FRβ tumors; mouse #10, rescue after first EC17 dose): CAR T cell functionality was preserved
